Measured values reported in US20230278972A1, “SUBSTITUTED HALOALKYL SULFONANILIDE HERBICIDES” (FMC Corporation, priority 2020, published 2023).

Assays:
[1] = system: wheat (Triticum aestivum); assay: Test A postemergence, wheat; type: in vivo; conditions: Triticum aestivum, post-emergence, 240 h, read-out: Plant response rating, Wheat
Outline: (§1)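 Preemergence: seeded pots of loam plus sand received a directed soil spray. Postemergence: seedlings at one to two leaves, 2 to 10 cm high, were oversprayed. Each compound was formulated in a non-phytotoxic solvent mix that included a surfactant.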

[2] = system: ragweed (common ragweed, Ambrosia artemisiifolia); assay: Test A postemergence, ragweed; type: in vivo; conditions: Ambrosia artemisiifolia, post-emergence, 240 h, read-out: Plant response rating, Ragweed
Outline: (§2)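 Pots: loam soil/sand blend. Pre: directed soil spray at planting. Post: plants 2–10 cm, 1–2 leaf stage. Formulation: non-phytotoxic solvent + surfactant.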

[3] = system: pigweed (Amaranthus retroflexus); assay: Test A preemergence, pigweed; type: in vivo; conditions: Amaranthus retroflexus, pre-emergence, 240 h, 1000 g ai/ha, 0 to 100 scale (0 no effect, 100 complete control), read-out: Plant response rating, Pigweed
Outline: as §1

[4] = system: barnyardgrass (Echinochloa crus-galli); assay: Test A postemergence, barnyardgrass; type: in vivo; conditions: Echinochloa crus-galli, post-emergence, 240 h, read-out: Plant response rating, Barnyardgrass
Outline: as §1

[5] = system: ducksalad (Heteranthera limosa); assay: Test B flooded paddy test, ducksalad; conditions: 336 h, read-out: Plant response rating, Ducksalad
[6] = system: barnyardgrass (Echinochloa crus-galli); assay: Test B flooded paddy test, barnyardgrass; conditions: 336 h, read-out: Plant response rating, Barnyardgrass
[7] = system: kochia (Bassia scoparia); assay: Test A preemergence, kochia; type: in vivo; conditions: Bassia scoparia, pre-emergence, 240 h; for pest or weed control at 500 g/ha: read-out: Kochia plant response rating
Outline: as §2

[8] = system: barnyardgrass (Echinochloa crus-galli); assay: Test A preemergence, barnyardgrass; type: in vivo; conditions: Echinochloa crus-galli, pre-emergence, 240 h; for pest or weed control at 500 g/ha: read-out: Barnyardgrass plant response rating
Outline: as §2

[9] = system: galium (catchweed bedstraw, Galium aparine); assay: Test A postemergence, galium; type: in vivo; conditions: Galium, post-emergence, 240 h, read-out: Plant response rating, Galium
Outline: as §1

[10] = system: rice (Oryza sativa); assay: Test B flooded paddy test, rice; conditions: 336 h, read-out: Plant response rating, Rice
[11] = system: Foxtail, Giant (giant foxtail, Setaria faberi); assay: Test A postemergence, Foxtail, Giant; type: in vivo; conditions: Setaria faberi, post-emergence, 240 h, read-out: Plant response rating, Foxtail, Giant
Outline: as §2

[12] = system: Ryegrass, Italian (Italian ryegrass, Lolium multiflorum); assay: Test A postemergence, Ryegrass, Italian; type: in vivo; conditions: Lolium multiflorum, post-emergence, 240 h, read-out: Plant response rating, Ryegrass, Italian
Outline: as §2

[13] = system: blackgrass (Alopecurus myosuroides); assay: Test A postemergence, blackgrass; type: in vivo; conditions: Alopecurus myosuroides, post-emergence, 240 h, read-out: Plant response rating, Blackgrass
Outline: as §2

[14] = system: kochia (Bassia scoparia); assay: Test A postemergence, kochia; type: in vivo; conditions: Bassia scoparia, post-emergence, 240 h, read-out: Plant response rating, Kochia
Outline: as §2

[15] = system: Ryegrass, Italian (Italian ryegrass, Lolium multiflorum); assay: Test A preemergence, Ryegrass, Italian; type: in vivo; conditions: Lolium multiflorum, pre-emergence, 240 h; for pest or weed control at 500 g/ha: read-out: Ryegrass, Italian plant response rating
Outline: as §2

[16] = system: Foxtail, Giant (giant foxtail, Setaria faberi); assay: Test A preemergence, Foxtail, Giant; type: in vivo; conditions: Setaria faberi, pre-emergence, 240 h; for pest or weed control at 500 g/ha: read-out: Foxtail, Giant plant response rating
Outline: as §2

[17] = system: corn (Zea mays); assay: Test A postemergence, corn; type: in vivo; conditions: Zea mays, post-emergence, 240 h; for plant injury at 125 g/ha / plant injury at 500 g/ha: read-out: Plant response rating, Corn
Outline: as §2

[18] = system: pigweed (Amaranthus retroflexus); assay: Test A postemergence, pigweed; type: in vivo; conditions: Amaranthus retroflexus, post-emergence, 240 h, read-out: Plant response rating, Pigweed
Outline: as §2

[19] = system: ragweed (common ragweed, Ambrosia artemisiifolia); assay: Test A preemergence, ragweed; type: in vivo; conditions: Ambrosia artemisiifolia, pre-emergence, 240 h; for pest or weed control at 125 g/ha: read-out: Plant response rating, Ragweed; for pest or weed control at 500 g/ha: read-out: Ragweed plant response rating
Outline: as §2

[20] = Postemergence, 1000 g ai/ha, visual injury, 0 to 100 scale (0 no effect, 100 complete control), approx. 10 days
[21] = read-out: Plant response rating, Kochia
[22] = read-out: Plant response rating, Barnyardgrass
[23] = read-out: Plant response rating, Ryegrass, Italian
[24] = read-out: Plant response rating, Foxtail, Giant

Cc1cc(C)c(C(=O)N2CCOCC2)cc1NS(=O)(=O)C(F)(F)F [Compound 6, N-[2,4-Dimethyl-5-(4-morpholinylcarbonyl)phenyl]-1,1,1-trifluoromethanesulfonamide]
100%: pest or weed control at 1000 g/ha [3] | pest or weed control at 1000 g/ha ([7]; Preemergence, 1000 g ai/ha, 0 to 100 scale (0 no effect, 100 complete control), read-out: Plant response rating, Kochia) | pest or weed control at 1000 g/ha ([8]; Preemergence, 1000 g ai/ha, 0 to 100 scale (0 no effect, 100 complete control), read-out: Plant response rating, Barnyardgrass) | pest or weed control at 1000 g/ha ([15]; Preemergence, 1000 g ai/ha, 0 to 100 scale (0 no effect, 100 complete control), read-out: Plant response rating, Ryegrass, Italian) | pest or weed control at 1000 g/ha ([16]; Preemergence, 1000 g ai/ha, 0 to 100 scale (0 no effect, 100 complete control), read-out: Plant response rating, Foxtail, Giant) | pest or weed control at 1000 g/ha [18, 20]
60%: plant injury at 1000 g/ha [1, 20] | pest or weed control at 1000 g/ha [13, 20] | Corn plant response rating (crop injury, 0 = no effect, 100 = complete kill) at 1000 g/ha [17, 20]
0%: pest or weed control at 250 g/ha [5] | pest or weed control at 250 g/ha [6] | plant injury at 250 g/ha [10]
90%: pest or weed control at 1000 g/ha [4, 20] | pest or weed control at 1000 g/ha [9, 20] | pest or weed control at 1000 g/ha [11, 20]
80%: pest or weed control at 1000 g/ha [12, 20] | pest or weed control at 1000 g/ha [14, 20]
50%: pest or weed control at 1000 g/ha [2, 20]

Cc1cc(C)c(N(S(=O)(=O)C(F)(F)F)S(=O)(=O)C(F)(F)F)cc1N1CCC2(CCCCC2)C1=O [Compound 267, N-[2,4-Dimethyl-5-(1-oxo-2-azaspiro[4.5]dec-2-yl)phenyl]-1,1,1-trifluoro-N-[(trifluoromethyl)sulfonyl]methanesulfonamide]
90%: pest or weed control at 500 g/ha [9] | pest or weed control at 125 g/ha [15, 23]
40%: plant injury at 125 g/ha [1] | pest or weed control at 500 g/ha [2] | pest or weed control at 125 g/ha [14]
20%: pest or weed control at 125 g/ha [4] | pest or weed control at 500 g/ha [4] | pest or weed control at 500 g/ha [13]
100%: pest or weed control at 500 g/ha [7] | pest or weed control at 500 g/ha [8] | pest or weed control at 125 g/ha [8, 22] | pest or weed control at 125 g/ha [19] | pest or weed control at 500 g/ha [19] | pest or weed control at 500 g/ha [15] | pest or weed control at 500 g/ha [16] | pest or weed control at 125 g/ha [16, 24]
10%: pest or weed control at 125 g/ha [2]
35%: pest or weed control at 250 g/ha [5]
30%: pest or weed control at 500 g/ha [12]
80%: pest or weed control at 125 g/ha [7, 21] | pest or weed control at 125 g/ha [9] | pest or weed control at 500 g/ha [18]
50%: pest or weed control at 125 g/ha [18]
60%: plant injury at 500 g/ha [1] | pest or weed control at 500 g/ha [14]
0%: pest or weed control at 250 g/ha [6] | plant injury at 250 g/ha [10] | pest or weed control at 125 g/ha [11] | pest or weed control at 500 g/ha [11] | pest or weed control at 125 g/ha [12] | pest or weed control at 125 g/ha [13] | plant injury at 125 g/ha [17] | plant injury at 500 g/ha [17]

Cc1cc(C)c(N(COC(=O)C(C)(C)C)S(=O)(=O)C(F)(F)F)cc1N1CCC2(CCCCC2)C1=O [Compound 268, [[2,4-Dimethyl-5-(1-oxo-2-azaspiro[4.5]dec-2-yl)phenyl][(trifluoromethyl)sulfonyl]amino]methyl 2,2-dimethylpropanoate]
80%: pest or weed control at 500 g/ha [4] | pest or weed control at 500 g/ha [18]
50%: plant injury at 125 g/ha [1] | pest or weed control at 125 g/ha [4] | pest or weed control at 500 g/ha [8] | pest or weed control at 125 g/ha [16, 24] | plant injury at 125 g/ha [17]
20%: pest or weed control at 125 g/ha [13]
60%: pest or weed control at 500 g/ha [12] | pest or weed control at 500 g/ha [15] | pest or weed control at 125 g/ha [18]
30%: pest or weed control at 500 g/ha [11] | pest or weed control at 125 g/ha [14]
40%: pest or weed control at 250 g/ha [6] | pest or weed control at 125 g/ha [8, 22] | pest or weed control at 125 g/ha [19] | pest or weed control at 125 g/ha [12] | pest or weed control at 500 g/ha [13] | pest or weed control at 500 g/ha [14]
0%: plant injury at 250 g/ha [10] | pest or weed control at 125 g/ha [11] | pest or weed control at 125 g/ha [15, 23]
90%: pest or weed control at 500 g/ha [2] | pest or weed control at 125 g/ha [9] | pest or weed control at 500 g/ha [9] | pest or weed control at 500 g/ha [19]
70%: plant injury at 500 g/ha [1] | pest or weed control at 125 g/ha [2] | pest or weed control at 250 g/ha [5] | pest or weed control at 500 g/ha [7] | pest or weed control at 125 g/ha [7, 21] | pest or weed control at 500 g/ha [16] | plant injury at 500 g/ha [17]

Cc1cc(C)c(N2CCC3(CCCCC3)C2=O)cc1NS(=O)(=O)C(F)(F)F [Compound 278, N-[2,4-Dimethyl-5-(1-oxo-2-azaspiro[4.5]dec-2-yl)phenyl]-1,1,1-trifluoromethanesulfonamide]
85%: pest or weed control at 250 g/ha [5]
30%: pest or weed control at 125 g/ha [12] | pest or weed control at 125 g/ha [14] | plant injury at 500 g/ha [17]
90%: pest or weed control at 125 g/ha [7, 21] | pest or weed control at 125 g/ha [9] | pest or weed control at 500 g/ha [9] | pest or weed control at 125 g/ha [19] | pest or weed control at 500 g/ha [18]
40%: pest or weed control at 125 g/ha [2]
60%: plant injury at 125 g/ha [1] | pest or weed control at 500 g/ha [2] | pest or weed control at 125 g/ha [8, 22] | pest or weed control at 125 g/ha [16, 24] | pest or weed control at 125 g/ha [18]
70%: plant injury at 500 g/ha [1] | pest or weed control at 500 g/ha [14]
50%: pest or weed control at 500 g/ha [13]
0%: pest or weed control at 250 g/ha [6] | pest or weed control at 125 g/ha [11] | pest or weed control at 125 g/ha [13] | plant injury at 125 g/ha [17]
20%: pest or weed control at 125 g/ha [4] | pest or weed control at 500 g/ha [11]
80%: pest or weed control at 500 g/ha [4] | pest or weed control at 500 g/ha [12]
15%: plant injury at 250 g/ha [10]
100%: pest or weed control at 500 g/ha [7] | pest or weed control at 500 g/ha [8] | pest or weed control at 500 g/ha [19] | pest or weed control at 125 g/ha [15, 23] | pest or weed control at 500 g/ha [15] | pest or weed control at 500 g/ha [16]
